# Measured values as given in the Deep4Chem optical property database.
# Test: solvent given as SMILES
compound,measurement,setting,value
Cc1nc2c(ccc3c2sc(/C=C/C=C/c2ccc(N(C)C)cc2)[n+]3C)s1,absorption maximum,in CO,574 nm
same,absorption maximum,in ClC(Cl)Cl,617 nm
COc1ccc(C#Cc2ccc3ccc(=O)oc3c2)cc1,absorption maximum,in CC#N,308 nm
Cc1cccc(C)c1-c1cc2c(C)c3c4cc5nc6cc7c(cc6nc5cc4c3c(C)c2cc1-c1c(C)cccc1C)c1c(C)c2cc(-c3c(C)cccc3C)c(-c3c(C)cccc3C)cc2c(C)c71,absorption maximum,in ClC(Cl)Cl,503 nm
CCCCC(CC)Cn1c2cc(C#N)ccc2c2ccc(C#Cc3ccc4ccc5cccc6ccc3c4c56)cc21 (stereo not given),absorption maximum,in ClCCl,410 nm
F[B-]1(F)n2cccc2C(c2ccccc2)=C2C=CC(N3CCOCC3)=[N+]21,absorption maximum,in CC#N,473 nm
same,absorption maximum,in CCCCCC,514 nm
same,absorption maximum,in CCOC(C)=O,480 nm
same,absorption maximum,in CO,479 nm
same,absorption maximum,in ClCCl,486 nm
Cc1ccc(C#Cc2ccc3nc4ccc(C#Cc5ccc(C)cc5)cn4c(=O)c3c2)cc1,absorption maximum,in ClCCl,385 nm
CCCCC(CC)COc1ccc2nc(-c3ccc(-c4c(C)noc4C)s3)sc2c1 (stereo not given),absorption maximum,in ClCCl,359 nm
COc1ccc(C2=C3C=CC(=[N+](C)C)C=C3[Si](C)(C)c3cc(N(C)C)ccc32)c(OC)c1,absorption maximum,in O,649 nm
CC1=c2cc3c(cc2=[N+]2C1=Cc1c4ccccc4c(C)n1[B-]2(F)F)C1=Cc2c4ccccc4c(C)n2[B-](F)(F)[N+]1=C3C,absorption maximum,in ClC(Cl)Cl,848 nm
CCOC(=O)CSc1nc(-c2ccc(OC)cc2)c(C)c(C#N)c1C#N,absorption maximum,in c1ccccc1,374 nm
CCc1ccc(-c2nc(-c3ccc(-n4c5ccccc5c5ccccc54)cc3)cc(-c3ccc(-n4c5ccccc5c5ccccc54)cc3)n2)cc1,absorption maximum,in C1CCOC1,343 nm
same,absorption maximum,in CN(C)C=O,344 nm
same,absorption maximum,in Cc1ccccc1,354 nm
same,absorption maximum,in ClC(Cl)Cl,344 nm
COc1ccc(-n2c(C)ccc2C)cc1,absorption maximum,in CC#N,224 nm
same,absorption maximum,in CCCCCC,222 nm
CC[N+](CC)=c1ccc2nc3c(cc(NCCC(=O)NC(C)C(=O)OC)c4ccccc43)oc-2c1 (stereo not given),absorption maximum,in CCO,600 nm
same,absorption maximum,in O,580 nm
COc1ccc2cc(C#N)c(=N)oc2c1,absorption maximum,in ClCCl,358 nm
c1ccc(-c2nc(-c3ccccc3)nc(-c3ccc(-n4c5ccccc5c5cc6c7ccccc7n7c8ccccc8c(c54)c67)cc3)n2)cc1,absorption maximum,in Cc1ccccc1,383 nm
CCn1c(=O)nc2n(C)c3cc(C)ccc3nc-2c1=O,absorption maximum,in C1COCCO1,443 nm
same,absorption maximum,in CC#N,445 nm
same,absorption maximum,in CO,446 nm
same,absorption maximum,in ClCCCl,448 nm
CCOC(=O)c1ccccc1-c1c2ccc(=O)cc-2oc2cc(OC(=O)[C@H](CSCc3ccc(C)cc3)NC(=O)OC(C)(C)C)ccc12,absorption maximum,in C1CCOC1,431 nm
same,absorption maximum,in CC#N,431 nm
same,absorption maximum,in CCO,435 nm
same,absorption maximum,in CS(C)=O,457 nm
Cc1ccc(-c2ccc(/C=C/c3ccc([N+](=O)[O-])cc3)cn2)nc1,absorption maximum,in CC#N,349 nm
Clc1ccccc1-c1nc2sc3ccccc3c2s1,absorption maximum,in CS(C)=O,347 nm
C=C(C)C(CN1C(=O)c2cccc3cccc(c23)C1=O)OO (stereo not given),absorption maximum,in CCO,332 nm
CC1(C)c2ccccc2N(c2ccccc2)c2ccc(-c3ccc(S(=O)(=O)c4ccc(-c5ccc6c(c5)C(C)(C)c5ccccc5N6c5ccccc5)cc4)cc3)cc21,absorption maximum,in Cc1ccccc1,363.38 nm
CCN(CC)c1ccc(/C=N/c2cc3ccccc3cc2/N=C/c2ccc(N(CC)CC)cc2O)c(O)c1,absorption maximum,in CC#N,403 nm
same,absorption maximum,in CN(C)C=O,416 nm
same,absorption maximum,in ClCCl,447 nm
COc1ccc(/C=C/c2nc3ccccc3o2)cc1,absorption maximum,in C1CCCCC1,330 nm
same,absorption maximum,in CO,340 nm
CCCCOc1c(C#N)cc2cc(C#N)c(OCCCC)c3c4c(OCCCC)c(C#N)cc5cc(C#N)c(OCCCC)c(c1c23)c54,absorption maximum,in ClCCl,454 nm
c1ccc(N(c2ccccc2)c2ccc(-c3ncc(-c4cnc(-c5ccc(N(c6ccccc6)c6ccccc6)cc5)s4)s3)cc2)cc1,absorption maximum,in CO,422 nm
Fc1ccc(C#Cc2c(C#Cc3ccc(F)cc3)c(C#Cc3ccc(F)cc3)c(C#Cc3ccc(F)cc3)c(C#Cc3ccc(F)cc3)c2C#Cc2ccc(F)cc2)cc1,absorption maximum,in ClCCl,368 nm
O=C1C2=C3c4sccc4C=CN3C(=O)C2=C2c3sccc3C=CN12,absorption maximum,in CN(C)C=O,605 nm
same,absorption maximum,in ClC(Cl)Cl,605 nm
O=c1c2cccc3cccc(c32)c2nc3c(F)c(F)c(F)c(F)c3n12,absorption maximum,in ClCCl,382 nm
C[Si]1(C)c2ccccc2-c2ccccc21,absorption maximum,in ClCCl,336 nm
O=C([O-])c1ccccc1C1=c2cc3c4c(c2Oc2c1cc1c5c2CCCN5CCC1)CCC[N+]=4CCC3,absorption maximum,in CC#N,577 nm
same,absorption maximum,in CCO,564 nm
same,absorption maximum,in CN(C)C=O,580 nm
same,absorption maximum,in O,575 nm
O=P1(c2ccccc2)c2cc(N3c4ccccc4Sc4ccccc43)ccc2-c2ccc(N3c4ccccc4Sc4ccccc43)cc21,absorption maximum,in Cc1ccccc1,399 nm
CC(C)[Si](C#Cc1ccc(-c2c3cccc4c5cccc6c(-c7ccc(C#C[Si](C(C)C)(C(C)C)C(C)C)cc7)c7cccc8c9cccc2c9c(c34)c(c65)c78)cc1)(C(C)C)C(C)C,absorption maximum,in Cc1ccccc1,727 nm
COc1ccc(/C=C/c2nc(-c3ccc([N+](=O)[O-])cc3)[nH]c2/C=C/c2ccc(OC)cc2)cc1,absorption maximum,in ClCCl,455 nm
CC(C)(C)c1cc(-c2cc3c(cc(-c4cc(C(C)(C)C)cc(C(C)(C)C)c4)n3-c3ccc(C(=C(c4ccccc4)c4ccccc4)c4ccccc4)cc3)n2-c2ccc(C(=C(c3ccccc3)c3ccccc3)c3ccccc3)cc2)cc(C(C)(C)C)c1,absorption maximum,in ClCCl,337 nm
COc1ccc(/C=C/C=C/C2=NC3C(=O)NC(N)=NC3N2[C@H]2C[C@H](O)[C@@H](CO)O2)cc1 (stereo not given in full),absorption maximum,in C1COCCO1,354 nm
same,absorption maximum,in CC#N,352 nm
same,absorption maximum,in CO,342 nm
CCCCN1C(=O)C(=C/C=C/C=C2N(CCCC)c3ccccc3N2CCCC)C(=O)N(CCCC)C1=S,absorption maximum,in CCCCCC,574 nm
same,absorption maximum,in CCO,452 nm
same,absorption maximum,in CN(C)C=O,497 nm
same,absorption maximum,in Cc1ccccc1,575 nm
same,absorption maximum,in ClC(Cl)Cl,559 nm
same,absorption maximum,in ClCCl,550 nm
CN(C)c1ccc(C2=Nc3scc(-c4ccc([N+](=O)[O-])cc4)[n+]3[B-](F)(F)O2)cc1,absorption maximum,in C1CCOC1,412 nm
same,absorption maximum,in CC#N,411 nm
same,absorption maximum,in Cc1ccccc1,415 nm
same,absorption maximum,in ClCCl,417 nm
CC(C)CN1C(=O)/C(=C/c2ccc(C#N)cc2)C=C1c1ccccc1,absorption maximum,in C1COCCO1,440 nm
C[Si]1(C)c2cc(-c3ccc(N(c4ccccc4)c4ccccc4)cc3)ccc2C=Cc2ccc(-c3ccc(N(c4ccccc4)c4ccccc4)cc3)cc21,absorption maximum,in ClCCl,435 nm
CC(C)(C)c1ccc(/C=C/c2ccc(N(c3ccc(/C=C/c4ccc(C(C)(C)C)cc4)cc3)c3ccc(-c4nc5ccccc5nc4-c4ccc(N(c5ccc(/C=C/c6ccc(C(C)(C)C)cc6)cc5)c5ccc(/C=C/c6ccc(C(C)(C)C)cc6)cc5)cc4)cc3)cc2)cc1,absorption maximum,in C1CCOC1,375 nm
same,absorption maximum,in Cc1ccccc1,373 nm
CN(C)c1cc(C#N)c(N(C)C)c(C#N)c1,absorption maximum,in C1CCCCC1,387.45 nm
same,absorption maximum,in C1CCOC1,390.47 nm
same,absorption maximum,in C1COCCO1,391.08 nm
same,absorption maximum,in CC1COC(=O)O1,394.48 nm
same,absorption maximum,in CC#N,390.93 nm
same,absorption maximum,in CC(C)=O,389.86 nm
same,absorption maximum,in CC(C)OC(C)C,386.7 nm
same,absorption maximum,in CCC#N,391.08 nm
same,absorption maximum,in CCC(C)C,385.21 nm
same,absorption maximum,in CCCCCC,386.7 nm
same,absorption maximum,in CCCCCCCCO,393.39 nm
same,absorption maximum,in CCCCCOCCCCC,388.5 nm
same,absorption maximum,in CCCCOC(C)=O,389.86 nm
same,absorption maximum,in CCCCOCCCC,387.6 nm
same,absorption maximum,in CCCOCCC,389.86 nm
same,absorption maximum,in CCO,391.7 nm
same,absorption maximum,in CCOC(C)=O,389.71 nm
same,absorption maximum,in CCOCC,390.62 nm
same,absorption maximum,in CN(C)C=O,393.55 nm
same,absorption maximum,in CO,392.31 nm
same,absorption maximum,in CS(C)=O,396.83 nm
same,absorption maximum,in Cc1ccccc1,395.26 nm
same,absorption maximum,in ClCCCl,394.48 nm
same,absorption maximum,in ClCCl,397.3 nm
same,absorption maximum,in N#Cc1ccccc1,399.36 nm
same,absorption maximum,in O,386.85 nm
same,absorption maximum,in OCC(O)CO,403.39 nm
same,absorption maximum,in c1ccccc1,395.73 nm
COc1ccc2c(c1)-c1cc3c(cc1[Si]2(c1ccccc1)c1ccccc1)-c1ccccc1[Si]3(c1ccccc1)c1ccccc1,absorption maximum,in ClCCl,334 nm
F[B-]1(F)n2c(c(-c3ccccc3)c(-c3ccccc3)c2-c2ccccc2)C=C2C(c3ccccc3)=C(c3ccccc3)C(c3ccccc3)=[N+]21,absorption maximum,in C1CCOC1,576 nm
COc1ccc(-c2cnc3nn4ccccc4c3c2)cc1,absorption maximum,in C1CCOC1,386 nm
C/C(=C\c1ccc(Cl)cc1)c1nc2ccccc2o1,absorption maximum,in C1CCCCC1,320 nm
same,absorption maximum,in CO,320 nm
c1ccc2c(c1)CCc1ccccc1N2c1c2ccccc2c(N2c3ccccc3CCc3ccccc32)c2ccccc12,absorption maximum,in Cc1ccccc1,456 nm
CCCCC1=Cc2c3ccc4cccc5ccc(c6cc(-c7ccccc7)n(c26)P1(=O)c1ccccc1)c3c45 (stereo not given),absorption maximum,in C1CCCCC1,430 nm
same,absorption maximum,in C1CCOC1,430 nm
same,absorption maximum,in C1COCCO1,430 nm
same,absorption maximum,in CC#N,426 nm
same,absorption maximum,in CC(C)=O,427 nm
same,absorption maximum,in CO,426 nm
same,absorption maximum,in Cc1ccccc1,433 nm
same,absorption maximum,in ClC(Cl)Cl,431 nm
same,absorption maximum,in ClCCl,430 nm
COc1cccc(-n2c(-c3ccc(F)cc3)nc(C)c2C)c1,absorption maximum,in CCCCCC,284 nm
same,absorption maximum,in CCCCO,289 nm
same,absorption maximum,in CCO,290 nm
same,absorption maximum,in CCOC(C)=O,288 nm
same,absorption maximum,in ClCCl,284 nm
N#Cc1nc(N(Cc2ccc(Cl)cc2)Cc2ccc(Cl)cc2)c(C#N)nc1N(Cc1ccc(Cl)cc1)Cc1ccc(Cl)cc1,absorption maximum,in ClC(Cl)Cl,485 nm
CC(C)(C)c1ccc2oc3nc4oc5ccc(N(c6ccccc6)c6ccccc6)cc5c4cc3c2c1,absorption maximum,in ClC(Cl)Cl,342 nm
CN(C)CCCN1c2ccccc2CCc2ccccc21,absorption maximum,in CC#N,276 nm
same,absorption maximum,in CO,274 nm
same,absorption maximum,in O,275 nm
COc1ccc(-c2pc3ccccc3s2)cc1 (stereo not given),absorption maximum,in CC#N,347 nm
F[B-]1(F)OC(c2ccc(Br)cc2)=Cc2c3ccccc3c3ccccc3[n+]21,absorption maximum,in ClC(Cl)Cl,435 nm
Nc1ccc2cn[nH]c2c1,absorption maximum,in C1CCCCC1,296 nm
